Experimental data as given in patent US8513306B2, “Enhancement of urogenital function” (priority 2005, dated 2013).

How the values were obtained:
[1] = in vivo; cited from earlier work
[2] = test system: younger subject two; assay: Trial: small amounts of amantadine with creatine, with or without a PDE5 inhibitor ED drug; format: in vivo, human; details: for Results in conjugal sexual activity: ED drugs in low doses over the past four years; for Effectiveness of small dose of the PDE5 inhibitor ED drug alone: VIAGRA about 12.5 mg or LEVITRA about 2.5 mg, normally
Experimental: In a trial, the younger subject two ingested small amounts of amantadine along with about 88 mg of creatine. The small amounts of amantadine were measured by opening a capsule of amantadine and pouring out small amounts. Ten individual administrations used less than one 100 mg capsule of amantadine. Thus, the dose of amantadine was approximately 5 mg to approximately 10 mg.
The subject noted a body weight that varied little from about 78 kg over the past twenty plus years. The subject noted no use of blood pressure or other prescribed medications on a regular basis.

[3] = test system: younger subject one; assay: Observation of the younger subject on lycopene-containing foods; format: in vivo, human; details: on occasion, for one day at a time
Excerpt: Other exemplary compositions may include lycopene. […] Lycopene is present in tomato products while other foods of interest include certain beans and blue berries. An exemplary method includes administering such a composition. For example, a composition that includes creatine and lycopene may be administered to a subject to treat a urologic disorder. An exemplary method includes administering creatine and lyocpene to treat a urologic disorder.

[4] = test system: patients; details: in vivo; cited from earlier work
[5] = test system: younger subject two; assay: Trial: occasional amantadine for flu prophylaxis, nocturnal urinary symptoms; format: in vivo, human; details: occasional administration of about 100 mg
Experimental: A trial involving the younger subject two involved occasional administration of about 100 mg of amantadine for flu prophylaxis.

[6] = test system: two male subjects with urinary symptoms; assay: Additional trials: creatine monohydrate in solution, loading phase and maintenance phase; format: in vivo, human
Experimental: […] […] […] The post-loading phase is referred to herein as a maintenance phase. The dose may vary during the maintenance phase; however, it is generally at least 50% less than the dose used in a loading phase.
In these trials, urinary flow-related symptoms were reduced.
However, in various trials, a delay in relief was experienced that corresponded to the dose size where a larger than required dose would actually delay relief (e.g. beyond 24 hours to as much as 72 hours). […] Such trials indicate that a dosage range exists for relief of symptoms and for timing of the relief.

[7] = test system: varsity football and track athletes; details: 3 g per day without prior loading; cited from earlier work
[8] = test system: subject one with nocturia and diagnosed moderate prostate enlargement; assay: Trial: single dose of creatine monohydrate powder in solution prior to sleep; format: in vivo, human; details: person two
Experimental: A trial provided creatine monohydrate as a powder (about 100% creatine monohydrate) and administered a single dose (approximately 0.1 to 0.2 g) of the creatine monohydrate powder in a solution (about 0.09 to 0.17 g creatine) approximately 0.5 to 3 hours prior to sleep. Urinary flow-related symptoms were reduced for the immediate sleep period and for sleep periods during the following 48 hours.
The subject weighed approximately 80 kg (about 175 lbs). Thus, the dosage was about 0.9 mg of creatine per kg of body weight. Range may vary by individual and prior consumption of a creatine compound. A general range for CSUE may be from about 0.4 mg creatine monohydrate to about 4.0 mg creatine monohydrate per kg body weight per day (e.g., about 32 mg to about 320 mg per day for a subject weighing about 80 kg). As already mentioned, the various trials used creatine monohydrate powder (about 100%) in solution. Thus, in terms of creatine content, the general range for CSUE may be from about 0.35 mg creatine per kg body weight per day (e.g., about 0.4*(3.124.4/5) mg) to about 3.5 mg creatine per kg body weight per day (e.g., 4.0*(3.124.4/5) mg). While dose may vary from patient to patient, the dose is typically less than the dose for CSR.

[9] = single dose approx 0.1 to 0.2 g in solution prior to sleep

C[C@]12CC[C@H](OS(=O)(=O)O)CC1=CC[C@@H]1[C@@H]2CC[C@]2(C)C(=O)CC[C@@H]12 [DHEA-S, DHEA-sulfate]
Levels of testosterone and androstenedione [1]: increased levels

CCCc1nc(C)c2c(=O)nc(-c3cc(S(=O)(=O)N4CCN(CC)CC4)ccc3OCC)[nH]n12 [LEVITRA®, 4-[2-ethoxy-5-(4-ethylpiperazin-1-yl)sulfonyl-phenyl]-9-methyl-7-propyl-3,5,6,8-tetrazabicyclo[4.3.0]nona-3,7,9-trien-2-one]
Results in conjugal sexual activity [2]: good results
Effectiveness of small dose of the PDE5 inhibitor ED drug alone [2]: somewhat marginally effective

CC(C)=CCC/C(C)=C/C=C/C(C)=C/C=C/C(C)=C/C=C/C=C(C)/C=C/C=C(C)/C=C/C=C(\C)CCC=C(C)C [Lycopene, lycopene]
Nocturnal urine stream slowing [3]: a lack of nocturnal urine stream slowing

CC12CC3CC(C)(C1)CC(N)(C3)C2 [Memantine, 1-amino-3,5-dimethyl-adamantane]
Tolerability [4]: generally well-tolerated

CCCc1nn(C)c2c(=O)[nH]c(-c3cc(S(=O)(=O)N4CCN(C)CC4)ccc3OCC)nc12.O=C(O)CC(O)(CC(=O)O)C(=O)O [VIAGRA®, 1-[4-ethoxy-3-(6,7-dihydro-1-methyl-7-oxo-3-propyl-1H-pyrazolo[4,3-d]pyrimidin-5-yl)phenylsulfonyl]-4-methylpiperazine citrate]
Results in conjugal sexual activity [2]: good results
Effectiveness of small dose of the PDE5 inhibitor ED drug alone [2]: somewhat marginally effective

NC12CC3CC(CC(C3)C1)C2 [amantadine, adamantan-1-amine]
Nocturnal urinary symptoms [5]: reduction in nocturnal urinary symptoms
Effect compared with DHEA taken to enhance libido (readiness for and enjoyment of orgasm) ([2]; about 5 mg of amantadine): similarly beneficial but distinct effect
Effect relative to that of the PDE5 inhibitor ED drugs ([2]; subject's observation): additive

CN(CC(=O)O)C(=N)N.O [creatine monohydrate]
Symptoms (urinary) ([6]; both subjects, loading phase 0.1 to 1.0 g, then maintenance about 50 to 150 mg every other day): symptoms were relieved
Initiation of urine stream at night ([6]; doses larger than about 0.25 g in the maintenance phase, younger subject): more difficult until 24 hours to 48 hours later
Urinary symptom reduction ([6]; doses of greater than 1 g after the loading phase, both subjects): less urinary symptom reduction
Ergogenic effect [7]: did not observe ergogenic effect
Urinary flow-related symptoms ([8]; single dose approx 0.1 to 0.2 g in solution 0.5 to 3 hours prior to sleep, immediate sleep period and sleep periods of following 48 hours): reduced
Nocturnal erections [8, 9]: increase in nocturnal erections
Testicular blood flow as evidenced by palpable scrotal content enlargement [8, 9]: increase in testicular blood flow
